# In PubChem BioAssay (NCI):
#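 Dose response: 5 concentrations. Exposure: 48 h. Format: 96-well plates. Endpoint: linear interpolation; highest concentration if not reached. Abbreviation: GI50, concentration required for 50% inhibition of growth. TGI is the concentration that stops growth completely.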
# Tests used:
# Test in all cases: NCI-60 cell line screen, 48 h
# [1] = test system: NCI-H460 lung
# [2] = test system: HOP-62 NSCLC
# [3] = test system: A549 NSCLC
# [4] = test system: MOLT-4 leukemia
# [5] = test system: OVCAR-8 ovarian
# [6] = test system: HL-60(TB) leukemia
# [7] = test system: DLD-1 colon
# [8] = test system: RPMI-8226 leukemia
# [9] = test system: SK-MEL-2 melanoma
# [10] = test system: CCRF-CEM leukemia
# [11] = test system: SN12C renal
# [12] = test system: DMS 114 small cell lung
# [13] = test system: U251 CNS
# [14] = test system: K-562 leukemia
# [15] = test system: IGROV1 ovarian
# [16] = test system: SNB-75 CNS
# [17] = test system: NCI-H23 lung
# [18] = test system: 786-0 renal
# [19] = test system: HT29 colon
# [20] = test system: LOX IMVI melanoma
# [21] = test system: HOP-18 NSCLC
# [22] = test system: MALME-3M melanoma
# [23] = test system: TK-10 renal
# [24] = test system: SNB-19 CNS
# [25] = test system: NCI-H522 lung
# [26] = test system: SF-539 CNS
# [27] = test system: EKVX NSCLC
# [28] = test system: M19-MEL melanoma
# [29] = test system: UACC-62 melanoma
# [30] = test system: HCT-15 colon
# [31] = test system: UO-31 renal
# [32] = test system: COLO 205 colon
# [33] = test system: KM20L2 colon
# [34] = test system: DMS 273 small cell lung
# [35] = test system: RXF 393 renal
# [36] = test system: HCT-116 colon
# [37] = test system: ACHN renal
# [38] = test system: SK-MEL-5 melanoma
# [39] = test system: SF-295 CNS
# [40] = test system: OVCAR-3 ovarian
# [41] = test system: SK-MEL-28 melanoma
# [42] = test system: KM12 colon
# [43] = test system: SW-620 colon
# [44] = test system: UACC-257 melanoma
# [45] = test system: NCI-H226 lung
# [46] = test system: M14 melanoma
# [47] = test system: SK-OV-3 ovarian
# [48] = test system: LXFL 529 NSCLC
# [49] = test system: SR leukemia
# [50] = test system: SNB-78 CNS
# [51] = test system: SF-268 CNS
# [52] = test system: HCC-2998 colon
# [53] = test system: CAKI-1 renal
# [54] = test system: A498 renal
# [55] = test system: HOP-92 NSCLC
# [56] = test system: OVCAR-5 ovarian
# [57] = test system: OVCAR-4 ovarian
compound,measurement,setting,value
O=C([O-])c1cc(I)cc(I)c1[OH2+].O=C([O-])c1cc(I)cc(I)c1[OH2+].[Mn+2],GI50,[1],64 µM
same,TGI,[1],> 100 µM
same,GI50,[2],35.2 µM
same,TGI,[2],> 100 µM
same,GI50,[3],56.4 µM
same,TGI,[3],> 100 µM
same,GI50,[4],> 100 µM
same,TGI,[4],> 100 µM
same,GI50,[5],34.2 µM
same,TGI,[5],> 100 µM
same,GI50,[6],> 100 µM
same,TGI,[6],> 100 µM
same,GI50,[7],> 100 µM
same,TGI,[7],> 100 µM
same,GI50,[8],> 100 µM
same,TGI,[8],> 100 µM
same,GI50,[9],48.5 µM
same,TGI,[9],> 100 µM
same,GI50,[10],> 100 µM
same,TGI,[10],> 100 µM
same,GI50,[11],18.9 µM
same,TGI,[11],42.9 µM
same,GI50,[12],32 µM
same,TGI,[12],> 100 µM
same,GI50,[13],21.5 µM
same,TGI,[13],61.3 µM
same,GI50,[14],> 100 µM
same,TGI,[14],> 100 µM
same,GI50,[15],19.4 µM
same,TGI,[15],49.4 µM
same,GI50,[16],60.1 µM
same,TGI,[16],99.8 µM
same,GI50,[17],30.4 µM
same,TGI,[17],89.4 µM
same,GI50,[18],51 µM
same,TGI,[18],> 100 µM
same,GI50,[19],97.8 µM
same,TGI,[19],> 100 µM
same,GI50,[20],46.2 µM
same,TGI,[20],> 100 µM
same,GI50,[21],> 100 µM
same,TGI,[21],> 100 µM
same,GI50,[22],33.9 µM
same,TGI,[22],> 100 µM
same,GI50,[23],32.1 µM
same,TGI,[23],> 100 µM
same,GI50,[24],29 µM
same,TGI,[24],87.7 µM
same,GI50,[25],22.2 µM
same,TGI,[25],69.2 µM
same,GI50,[26],24.8 µM
same,TGI,[26],60 µM
same,GI50,[27],72.3 µM
same,TGI,[27],> 100 µM
same,GI50,[28],81.7 µM
same,TGI,[28],> 100 µM
same,GI50,[29],45.7 µM
same,TGI,[29],> 100 µM
same,GI50,[30],> 100 µM
same,TGI,[30],> 100 µM
same,GI50,[31],35.6 µM
same,TGI,[31],> 100 µM
same,GI50,[32],> 100 µM
same,TGI,[32],> 100 µM
same,GI50,[33],> 100 µM
same,TGI,[33],> 100 µM
same,GI50,[34],37.7 µM
same,TGI,[34],> 100 µM
same,GI50,[35],17.8 µM
same,TGI,[35],40.2 µM
same,GI50,[36],36.7 µM
same,TGI,[36],> 100 µM
same,GI50,[37],20.3 µM
same,TGI,[37],59 µM
same,GI50,[38],> 100 µM
same,TGI,[38],> 100 µM
same,GI50,[39],33.5 µM
same,TGI,[39],> 100 µM
same,GI50,[40],24 µM
same,TGI,[40],77.6 µM
same,GI50,[41],> 100 µM
same,TGI,[41],> 100 µM
same,GI50,[42],67.3 µM
same,TGI,[42],> 100 µM
same,GI50,[43],53.2 µM
same,TGI,[43],> 100 µM
same,GI50,[44],18.8 µM
same,TGI,[44],43.1 µM
same,GI50,[45],33.7 µM
same,TGI,[45],74.1 µM
same,GI50,[46],42.9 µM
same,TGI,[46],> 100 µM
same,GI50,[47],20 µM
same,TGI,[47],44.2 µM
COc1ccc(/C(=N/O)C(c2ccc(OC)cc2)C2C(=O)Oc3ccccc32)cc1 (stereo not given),TGI,[1],> 100 µM
same,TGI,[48],> 100 µM
same,TGI,[49],> 100 µM
same,TGI,[3],> 100 µM
same,TGI,[50],> 100 µM
same,TGI,[51],> 100 µM
same,TGI,[52],> 100 µM
same,TGI,[53],> 100 µM
same,TGI,[4],> 100 µM
same,TGI,[5],> 100 µM
same,TGI,[6],> 100 µM
same,TGI,[7],> 100 µM
same,TGI,[54],> 100 µM
same,TGI,[8],> 100 µM
same,TGI,[9],> 100 µM
same,TGI,[10],> 100 µM
same,TGI,[11],> 100 µM
same,TGI,[12],79.9 µM
same,TGI,[13],> 100 µM
same,TGI,[14],> 100 µM
same,TGI,[15],> 100 µM
same,TGI,[16],> 100 µM
same,TGI,[55],80.6 µM
same,TGI,[17],> 100 µM
same,TGI,[18],> 100 µM
same,TGI,[19],> 100 µM
same,TGI,[20],> 100 µM
same,TGI,[21],> 100 µM
same,TGI,[22],> 100 µM
same,TGI,[56],> 100 µM
same,TGI,[23],> 100 µM
same,TGI,[25],> 100 µM
same,TGI,[26],> 100 µM
same,TGI,[27],> 100 µM
same,TGI,[28],> 100 µM
same,TGI,[29],> 100 µM
same,TGI,[30],> 100 µM
same,TGI,[31],> 100 µM
same,TGI,[32],7.05 µM
same,TGI,[57],> 100 µM
same,TGI,[36],> 100 µM
same,TGI,[37],> 100 µM
same,TGI,[38],68.2 µM
same,TGI,[39],11.7 µM
same,TGI,[41],> 100 µM
same,TGI,[42],> 100 µM
same,TGI,[43],> 100 µM
same,TGI,[44],> 100 µM
same,TGI,[45],> 100 µM
same,TGI,[46],> 100 µM
same,TGI,[47],> 100 µM
